{
  "source": "patent US20250368624A1",
  "about": "“M24B AMINOPEPTIDASE INHIBITORS FOR CARD8 INFLAMMASOME ACTIVATION” (Memorial Sloan-Kettering Cancer Center, priority 2022, published 2025)",
  "key": {"N/TERT-1 keratinocytes": {"system": "N/TERT-1 keratinocytes", "test": "Cell viability of N/TERT-1 keratinocytes (NLRP1 inflammasome)", "format": "cell-based, human", "settings": "VbP 10 μM, CQ compounds 20 μM, 24 h, CTG", "description": "Cell Culture. HEK293T, THP-1, RAW264.7 cells were purchased from ATCC. MV4;11, OCI-AML2 cells were purchased from DSMZ. N/TERT1 cells were a gift from the Rheinwald Lab (Dickson et al., 2000). HEK293T and RAW264.7 cells were grown in Dulbecco's Modified Eagle's Medium (DMEM) with L-glutamine and 10% fetal bovine serum (FBS). N/TERT1 cells were grown in Keratinocyte serum free medium (KSFM) supplemented with 1× penicillin/streptomycin, bovine pituitary extract (25 μg/ml) and epidermal growth factor (EGF) (0.2 ng/ml). All other cell lines were grown in Roswell Park Memorial Institute (RPMI) medium 1640 with L-glutamine and 10% fetal bovine serum (FBS). All cells were grown at 37° C. in a 5% CO2 atmosphere incubator. Cell lines were regularly tested for mycoplasma using the MycoAlert™ Mycoplasma Detection Kit (Lonza).\n(§1) CellTiter-Glo cell viability and CytoTox-Fluor cell death assays. Cells were plated (2,000 cells per well) in white, 384-well clear-bottom plates (Corning) using an EL406 Microplate Washer/Dispenser (BioTek) in 25 μL final volume of medium. To the cell plates were added compounds at different concentrations using a pintool (CyBio) and the plates were allowed to incubate in the incubator. After incubation for indicated times, CytoTox-Fluor reagent (Promega, G9262) was added according to the manufacturer's protocol. The assay plates were then incubated for another 30 min before fluorescence was recorded using a Cytation 5 Cell Imaging Multi-Mode Reader (BioTek). Next, CellTiter-Glo reagent (Promega, G7573) was subsequently added to the assay plates following the manufacturer's protocol. Assay plates were shaken on an orbital shaker for 2 min and incubated at 25° C. for 10 min. Luminescence was then read using a Cytation 5 Cell Imaging Multi-Mode Reader (BioTek)."}, "[1]": {"system": "primary bone marrow-derived macrophages (BMDMs) and mouse RAW264.7 cells", "test": "LDH release and GSDMD cleavage in BMDMs and RAW264.7 cells (mouse NLRP1)", "format": "cell-based", "settings": "VbP 10 μM, CQ31/CQ80 20 μM, 24 h", "description": "Mouse BMDM isolation and culture. Bone marrow was harvested from the femurs and tibias of 7-12-week-old C57BL/6J mice. Briefly, femurs and tibias were harvested from mice and crushed with a mortar and pestle in cold 1×PBS supplemented with 2.5% FBS. The mixture was passed through a 70-μm nylon cell strainer. RBCs were lysed for 4-5 min on ice in 1×RBC lysis buffer (Biolegend) and cells were centrifuged at 300×g for 5 min at 4° C. The cell pellet was washed in cold 1×PBS supplemented with 2.5% FBS before being passed again through in a 70-μm nylon cell strainer and counted. Counted cells were plated on non-tissue culture 10-cm plates at 5-10×10^6 cells per plate in DMEM supplemented with 10% FBS and 15-20% L-cell media. Cells were incubated at 37° C. for 6 days before replating and assaying as indicated.\nLDH cytotoxicity and immunoblotting assays. HEK293T cells were transiently transfected and treated with inhibitors as indicated. MV4;11, OCI AML2, THP-1, and RAW264.7 cells were plated in 12-well culture plates at 5×10^5 cells/well and treated as indicated. Supernatants were analyzed for LDH activity using the Pierce LDH Cytotoxicity Assay Kit (Life Technologies). LDH activity was quantified relative to a lysis control where cells were lysed in 80 μL of a 9% Triton X-100 solution. For immunoblotting, cells were washed 2× in PBS (pH=7.4), resuspended in PBS, and lysed by sonication. Protein concentrations were determined and normalized using the DCA Protein Assay kit (Bio-Rad). The samples were separated by SDS-PAGE, immunoblotted, and visualized using the Odyssey Imaging System (Li-Cor)."}, "XPNPEP1": {"target": "XPNPEP1 (Homo sapiens (Human), UniProt Q9NQW7)", "sequence (Q9NQW7 whole entry)": "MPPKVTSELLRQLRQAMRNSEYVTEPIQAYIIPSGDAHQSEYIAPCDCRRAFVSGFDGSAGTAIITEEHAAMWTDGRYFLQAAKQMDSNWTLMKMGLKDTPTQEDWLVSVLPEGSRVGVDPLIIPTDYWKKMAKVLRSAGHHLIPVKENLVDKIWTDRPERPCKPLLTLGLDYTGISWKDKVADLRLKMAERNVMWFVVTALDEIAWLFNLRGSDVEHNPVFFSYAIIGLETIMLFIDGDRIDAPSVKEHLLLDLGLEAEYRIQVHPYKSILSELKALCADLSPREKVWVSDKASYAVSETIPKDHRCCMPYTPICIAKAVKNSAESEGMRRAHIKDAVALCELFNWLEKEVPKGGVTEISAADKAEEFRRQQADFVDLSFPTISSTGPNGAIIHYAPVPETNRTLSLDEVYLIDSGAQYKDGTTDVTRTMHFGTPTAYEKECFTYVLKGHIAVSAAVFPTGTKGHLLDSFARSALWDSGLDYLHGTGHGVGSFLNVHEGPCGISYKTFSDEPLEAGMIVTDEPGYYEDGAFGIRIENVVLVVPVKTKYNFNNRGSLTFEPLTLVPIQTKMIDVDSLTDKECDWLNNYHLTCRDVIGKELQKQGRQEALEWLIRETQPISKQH", "test": "XPNPEP1 substrate assay (H-Lys(abz)-Pro-Pro-pNA)", "format": "biochemical", "description": "Protein purification. Human prolidase (PEPD) was generated and purified. XPNPEP1 in pET15-b containing a 6× His tag was expressed in E. coli Rosetta DE3 cells. Cells were induced with IPTG for 16 h at 37° C., pelleted and lysed in buffer A (20 mM Tris-HCl (pH 7.9), 500 mM NaCl, and 10% (v/v) glycerol) by sonication. Affinity purification chromatography was performed using TALON resin and according to previously published protocols (Li et al., 2008).\n(§2) Substrate assays. For the PEPD assay, a solution of substrate (Ala-Pro) was prepared in DMSO. 24 μL of 50 nM recombinant human PEPD were added to a 384-well, black, clear-bottom plate (Corning) with 1 μL dipeptide Ala-Pro (final conc. 40 μM). Alanine liberated was measured as increasing fluorescence signal (Resorufin, Ex/Em: 535/587 nm) recorded at 25° C. using an L-alanine assay kit (Abcam, ab83394) at 25° C. according to manufacturer's instructions. For the AMC reporter assays, experiments were performed with cell lysates. 5 μL solution of substrate (2.5 mM Ala-AMC) was added the mixture of 10 μL HEK293T cell lysates (2.5 mg/ml) and 10 μL of indicated compounds in a 384-well, black, clear-bottom plate (Corning) to initiate the reaction. Substrate cleavage was measured as increasing fluorescence signal (Ex/Em: 380/460 nm) recorded at 25° C. for 20 mins. For XPNPEP1 enzymes (XPNPEP1 3.5 nM) were plated on a black 384-well clear bottom plate and treated with the indicated doses of compounds. H-Lys(abz)-Pro-Pro-pNA substrate was added to a final concentration of 100 μM, and fluorescence was monitored (Ex/Em: 320/410) for 60 mins."}, "MV4;11 WT cells": {"system": "MV4;11 WT cells", "test": "CellTiter-Glo cell viability, WT MV4;11 cells", "format": "cell-based", "settings": "24 h, CTG", "description": "as §1"}, "[2]": {"test": "Stability in cell culture supernatants", "format": "in vitro ADME"}, "recombinant human PEPD": {"target": "recombinant human PEPD (Homo sapiens (Human), UniProt P12955)", "sequence (P12955 whole entry)": "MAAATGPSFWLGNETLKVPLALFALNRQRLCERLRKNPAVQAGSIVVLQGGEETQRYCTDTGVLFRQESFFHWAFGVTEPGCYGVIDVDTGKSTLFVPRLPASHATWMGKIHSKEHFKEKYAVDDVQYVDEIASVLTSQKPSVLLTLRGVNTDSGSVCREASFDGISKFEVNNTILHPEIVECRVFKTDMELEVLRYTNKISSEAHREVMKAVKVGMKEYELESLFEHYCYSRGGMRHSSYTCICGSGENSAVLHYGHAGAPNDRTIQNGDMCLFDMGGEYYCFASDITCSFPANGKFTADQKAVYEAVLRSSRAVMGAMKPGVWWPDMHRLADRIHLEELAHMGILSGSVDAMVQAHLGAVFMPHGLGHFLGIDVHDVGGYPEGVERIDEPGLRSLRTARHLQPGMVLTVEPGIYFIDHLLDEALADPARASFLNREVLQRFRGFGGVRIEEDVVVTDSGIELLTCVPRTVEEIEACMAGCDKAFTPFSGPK", "test": "PEPD substrate assay (Ala-Pro cleavage, L-alanine assay kit)", "format": "biochemical", "description": "Protein purification. Human prolidase (PEPD) was generated and purified. XPNPEP1 in pET15-b containing a 6× His tag was expressed in E. coli Rosetta DE3 cells.\nas §2, with “Alanine liberated was measured as increasing fluorescence signal (Resorufin, Ex/Em: 535/587 nm) recorded at 25° C. using an L-alanine assay kit (Abcam, ab83394) at 25° C. according to manufacturer's instructions.” left out, “For XPNPEP1 enzymes (XPNPEP1 3.5 nM) were plated on a black 384-well clear bottom plate and treated with the indicated doses of compounds.” left out"}, "OCI-AML2 cells": {"system": "OCI-AML2 cells", "test": "Propidium iodide uptake, OCI-AML2 cells", "format": "cell-based", "settings": "6.25 μM, compared to CQ31", "description": "Propidium iodideflux analysis. 2×10^4 MV4;11 or OCI-AML2 cells were plated in 384-well, black, clear-bottom plate (Corning) in RPMI medium. Cells were then treated as indicated and propidium iodide (PI) was added at a final concentration of 10 μM. PI fluorescence was measured at (Ex/Em: 535/617 nm) recorded at 37° C. every 5 mins in a Cytation 5 Cell Imaging Multi-Mode Reader (BioTek). The obtained measurements were baseline corrected to vehicle/DMSO and normalized to maximum response."}, "MV4;11 CASP1-/- cells": {"system": "MV4;11 CASP1-/- cells", "test": "CellTiter-Glo cell viability, CASP1-/- MV4;11 cells", "format": "cell-based", "settings": "Homo sapiens, MV4-11; 24 h, CTG", "description": "Cloning. CASP1^−/− MV4;11 cells^12; CARD8^−/− MV4;11, THP-1, OCI-AML2 cells^14; DPP8/9^−/− THP-1^12; PEPD^−/−, XPNPEP1^−/−, PEPD XPNPEP1^−/− THP-1 cells were generated. Plasmids for CARD8 variants, CASP1, GSDMD, dTAG-CARD8^ZUC were cloned as described previously (Hollingsworth et al., 2021; Johnson et al., 2018; Sharif et al., 2021).\nas §1"}},
  "data": [
    {"smiles": "CC(C)[C@H](N)C(=O)N1CCC[C@H]1B(O)O", "note": "[VbP, Val-boroPro, reference compound]", "values": [
      {"measurement": "cell death in N/TERT-1 keratinocytes", "setting": "N/TERT-1 keratinocytes", "value": "induced cell death"},
      {"measurement": "pyroptosis (LDH release and GSDMD cleavage)", "setting": "[1]", "value": "induced pyroptosis"}
    ]},
    {"smiles": "CC(C)C[C@@H](N)[C@H](O)C(=O)N1CCC[C@H]1C(=O)OC(C)(C)C", "note": "[CQ34, tert-butyl ((2S,3R)-3-amino-2-hydroxy-5-methylhexanoyl)-L-prolinate]", "values": [
      {"measurement": "XPNPEP1 inhibition (in words)", "setting": "XPNPEP1", "value": "inhibited PEPD and XPNPEP1 inhibitors similarly"},
      {"measurement": "cytotoxicity to MV4;11 cells (in words)", "setting": "MV4;11 WT cells", "value": "slightly more toxic"},
      {"measurement": "stability in cell culture supernatants (in words)", "setting": "[2]", "value": "considerably more stable than CQ31 or CQ94"},
      {"measurement": "time after which completely hydrolyzed", "setting": "[2]; cell culture supernatants", "value": "≤ 8", "unit": "h"},
      {"measurement": "PEPD inhibition (in words)", "setting": "recombinant human PEPD", "value": "inhibited PEPD and XPNPEP1 inhibitors similarly"}
    ]},
    {"smiles": "COC(=O)[C@@H](NC(=O)[C@@H]1CCCN1C(=O)[C@@H](O)[C@H](N)CC(C)C)C(C)C", "note": "[CQ78, Methyl ((2S,3R)-3-amino-2-hydroxy-5-methylhexanoyl)-L-prolyl-L-valinate]", "values": [
      {"measurement": "IC50", "setting": "XPNPEP1; XPNPEP1 3.5 nM, substrate 100 μM, 60 mins", "value": 41000, "unit": "nM"},
      {"measurement": "lytic cell death by uptake of propidium iodide", "setting": "OCI-AML2 cells", "value": "more rapid lytic cell death"},
      {"measurement": "IC50", "setting": "MV4;11 WT cells; Homo sapiens, MV4-11", "value": 450, "unit": "nM"},
      {"measurement": "IC50", "setting": "recombinant human PEPD; 50 nM recombinant human PEPD, Ala-Pro 40 μM, 25° C.", "value": 1200, "unit": "nM"},
      {"measurement": "IC50", "setting": "MV4;11 CASP1-/- cells", "value": "> 20000", "unit": "nM"}
    ]}
  ]
}
